From patent US7084301B2 (Ranbaxy Laboratories Limited, priority 2003, dated 2006)
Read-outs that look alike come from different tables or passages of the source.

What was measured:
[1] = molecular target: T1, rat α1B-adrenoceptor (spleen) (Rattus norvegicus, UniProt P15823); assay: In-vitro functional study, agonist-induced contractile response on isolated rat spleen; type: biochemical
T1 sequence (P15823 1-515): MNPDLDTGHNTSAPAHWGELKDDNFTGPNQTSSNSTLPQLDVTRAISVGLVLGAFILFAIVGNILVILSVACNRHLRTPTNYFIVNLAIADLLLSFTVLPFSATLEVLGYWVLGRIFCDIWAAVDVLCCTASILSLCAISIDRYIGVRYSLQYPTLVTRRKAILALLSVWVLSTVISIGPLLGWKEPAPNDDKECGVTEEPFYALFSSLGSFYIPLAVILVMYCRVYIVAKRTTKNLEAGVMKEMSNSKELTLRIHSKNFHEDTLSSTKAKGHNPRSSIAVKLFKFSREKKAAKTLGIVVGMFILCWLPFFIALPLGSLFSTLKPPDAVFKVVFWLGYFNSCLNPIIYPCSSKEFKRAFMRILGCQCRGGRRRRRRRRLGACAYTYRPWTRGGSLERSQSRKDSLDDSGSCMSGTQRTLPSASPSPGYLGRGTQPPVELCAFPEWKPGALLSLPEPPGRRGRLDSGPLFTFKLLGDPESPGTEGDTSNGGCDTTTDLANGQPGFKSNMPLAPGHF
Experimental: Aorta, prostate and spleen tissues were isolated from urethane anaesthetized (1.5 gm/kg) male wistar rats. Isolated tissues were mounted in organ bath containing Krebs Henseleit buffer of following compostion (mM): NaCl 118; KCl 4.7; CaCl2 2.5; MgSO4.7H2O 1.2; NaHCO3 25; KH2PO4 1.2; glucose 11.5. Buffer was maintained at 37° C. and aerated with a mixture of 95% O2 and 5% CO2. A resting tension of 2 g (aorta) or 1 g (spleen and prostate) was applied to tissues. Contractile response was monitored using a force displacement transducer and recorded on chart recorders. Tissues were allowed to equilibrate for 2 hours. At the end of equilibration period, concentration response curves to norepinephrine (aorta) and phenylepinephrine (spleen and prostate) were obtained in absence and presence of tested compound (at concentrations of […]). Antagonist affinities were calculated and expressed as pKB vales in Table II.
To compare the differences in pKB at the α1-arenrenoceptor subtypes one-way ANOVA followed by Dunett ‘t’ test was applied. A p<0.05 was considered statistically significant.

human α1B-adrenoceptors = molecular target: T2, human α1B-adrenoceptors (Homo sapiens, UniProt P35368); assay: Radioligand-receptor binding assay, human recombinant α1B-adrenoceptor, [3H]prazosin
T2 sequence (P35368 1-520): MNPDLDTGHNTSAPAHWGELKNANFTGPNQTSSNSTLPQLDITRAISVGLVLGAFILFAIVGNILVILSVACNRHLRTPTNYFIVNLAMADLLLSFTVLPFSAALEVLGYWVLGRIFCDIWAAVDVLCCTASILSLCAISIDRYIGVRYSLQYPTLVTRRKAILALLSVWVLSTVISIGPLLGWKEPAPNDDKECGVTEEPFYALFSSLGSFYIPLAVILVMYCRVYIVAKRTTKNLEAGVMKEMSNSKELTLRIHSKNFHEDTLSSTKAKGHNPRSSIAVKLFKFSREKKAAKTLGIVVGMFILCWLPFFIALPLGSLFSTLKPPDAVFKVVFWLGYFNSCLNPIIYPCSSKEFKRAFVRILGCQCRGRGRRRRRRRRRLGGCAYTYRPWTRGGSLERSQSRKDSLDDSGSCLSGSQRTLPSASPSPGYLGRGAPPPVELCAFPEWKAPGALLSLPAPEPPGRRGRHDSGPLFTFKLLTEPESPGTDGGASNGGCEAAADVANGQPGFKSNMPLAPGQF
Experimental: Chinese hamster ovary (CHO) cells which had been stably transfected with human α1A, α1B, or α1D-adrenoceptors (Keffel et al., Biochem. Biophys. Res. Commun., 2000, 272, 906–11) were cultured in an atmosphere of 5% CO2/95% air at 37° C. in F-12 HAM medium supplemented with 10% heat-inactivated fetal calf serum, 1 mM glutamine, 100 U/ml penicillin and 0.1 mg/ml streptomycin. Selection pressure was maintained by regular addition of geneticin to the culture medium.
Competitive radioligand binding to the cloned subtypes of […] was performed using [^3H]prazosin as the radioligand as described by Michel et al, Br. J. Pharmacol., 98, 883–889 (1989) with minor modifications. Experiments were performed in binding buffer consisting of 50 mM Tris, 10 mM MgCl2 and 0.5 mM EDTA at pH 7.5 in a total assay volume of 1000 μl. The protein content typically was 40–60 μg/assay. The mixtures were incubated at 25° C. for 45 minutes. Incubations were terminated by rapid vacuum filtration over GF/C filters followed by two washes of the filters each with 10 ml ice-cold incubation buffer. Non-specific binding was defined as binding in the presence of 10 μM phentolamine.
The IC50 & Kd were estimated by using the non-linear curve fitting program using G Pad Prism software. The value of inhibition constant Ki was calculated from competitive binding studies by using Cheng & Prusoff equation [Cheng & Prusoff, Biochem. Pharmacol., 22, 3099–3108 (1973)], Ki=IC50/(1+L/Kd), where L is the concentration of [^3H] prazosin used in the particular experiment. Kd of [^3H] prazosin was determined from saturation binding studies. The values were tabulated as mean±SEM of pKi values, where pKi is the −log of Ki value.

[2] = test system: anaesthetised normotensive rats; assay: Hypotensive effect in anaesthetised normotensive rats; type: in vivo, rat; details: for effect on blood pressure / effect on heart rate accompanying fall in blood pressure: anaesthetised normotensive rats, cumulative 0.01-10 μg/kg; for ED20: Effective dose to produce a fall in blood pressure by 20%: urethane-anaesthetised male normotensive rats, cumulative doses via femoral vein
Experimental: Male normotensive rats were anaesthetised with urethane (1.2 g/kg, i.p.). Carotid artery and femoral vein were cannulated for recording blood pressure and administration of test compounds respectively. Trachea was cannulated to maintain the airway patency. Rats were divided into two groups of 10 rats each. Group I received compound of Formula I, and Group II received Tamsulosin. Compounds were administered cumulatively at dose level of 0.01, 0.03, 0.1, 0.3, 1 & 10 μg/kg and effects on blood pressure and heart rate were monitored. Each subsequent dose in cumulative dose range was administered after previous response had stabilized.
Blood pressure and heart rate were recorded before and after drug treatment on a Grass polygraph using a Statham pressure transducer and tachograph. Effect on blood pressure was expressed as percentage change from the basal level. ED20 was calculated by fitting the cumulative dose response data in non-linear regression analysis and the value was taken from the curve. Effect on heart rate was expressed as change in beats/min.
To compare the difference amongst the dose groups one-way ANOVA followed by Dunett ‘t’ test was applied. A p of <0.05 was considered statistically significant.

## CCOc1ccccc1OCCNC(C)Cc1ccc(OC)c(S(N)(=O)=O)c1 (single isomer, unassigned; (-)) [Tamsulosin, (−) isomer of 5-[2-[2-(2-ethoxyphenoxy)ethylamino]-2-methylethyl]-2-methoxybenzene sulfonamide, reference compound]
[1]; rat spleen, phenylepinephrine-induced contraction, *p < 0.05 vs pKB at prostate tissue, read-out: pKB α1B (converted)
  Kb: 0.275 nM
Human α1B-adrenoceptors; human recombinant receptors in CHO cells, mean ± SEM, read-out: pKi α1B (converted)
  Ki: 0.692 nM
[2]
  effect on blood pressure: dose dependent fall in blood pressure
  effect on heart rate accompanying fall in blood pressure: decrease in the heart rate
  ED20: Effective dose to produce a fall in blood pressure by 20%: 300 ng/kg

## CCOc1ccccc1OCCN[C@H](C)Cc1ccc(O)c(S(N)(=O)=O)c1 [Formula I, R (−)-5-[2-[[2-(2-ethoxyphenoxy)ethyl]amino]propyl]-2-hydroxybenzenesulfonamide]
[1]
  Kb: 0.501 nM
Human α1B-adrenoceptors
  Ki: 0.324 nM
[2]
  effect on blood pressure: dose dependent fall in blood pressure
  effect on heart rate accompanying fall in blood pressure: increase in heart rate
  ED20: Effective dose to produce a fall in blood pressure by 20%: 520 ng/kg
